Key:
[1] = system: Escherichia coli ribosome; details: comparison value, no own experiment described; read-out: IC50 of chloramphenicol given for comparison; cited from earlier work
[2] = system: E. coli expressing the ClbP protease; assay: Growth curves with PXCNA; format: cell-based; details: crude extract, 10, 25, 50 mg/L; IPTG induced; 22° C., 24 hrs, OD600
Method: Growth curves made using PXCNA. Briefly, a single colony from E. coli strain C41(DE3)_ΔacrABpET-29b clbP strain was inoculated into LB medium supplemented with kanamycin (50 μg/ml). This culture was grown overnight at 37° C. while shaking at 200 RPM. 1:100 dilution of overnight culture into fresh LB medium supplemented with kanamycin (50 μg/ml) was performed. Samples were induced with IPTG (0.5 mM). A crude extract of PXCNA prepared in methanol (1 mg/ml). The final concentration in samples was 50 mg/L, 25 mg/L and 10 mg/L. Samples were incubated at 22° C. for 24 hrs and OD600 was measured using TecanSpark.

[3] = system: E. coli C41 DE3 pet29b_clbP pSEVA631_mGFP and E. coli C41 DE3 pet29b pSEVA_mScarlet-i; assay: Co-culture competition assay with PXCNA (mGFP / mScarlet-i fluorescence, OD600); format: cell-based
Method: PXCNA activity was measured via fluorescence (see FIGS. 18 and 19).
A co-culture assay was performed. Overnight cultures of E. coli C41 DE3 pet29b_cIbP pSEVA631_mGFP and E. coli C41 DE3 pet29b pSEVA_mScarlet-i were prepared separately each from a single colony. Then 1:100 dilution of each culture into the same LB media well supplemented with kanamycin (50 μg/ml) and gentamycin (15 μg/ml) was performed. […] Samples were fed with PXCNA with a final concentration of 25 mg/L.

SMILES	IC50 [1] [nM]	selective killing of ClbP expressing E. coli [2]	mGFP and mScarlet-i fluorescence in co-culture ([3]; PXCNA 25 mg/L, vanillic acid, with or without IPTG)	OD600 growth of E. coli C41 DE3 pet29b_clbP pSEVA631_mGFP ([3]; only vanillic acid and PXCNA added, no IPTG)
O=C(N[C@H](CO)[C@H](O)c1ccc([N+](=O)[O-])cc1)C(Cl)Cl [chloramphenicol]	2800			
CC(C)CCCC(=O)N[C@H](CC(N)=O)C(=O)N[C@@H](CCCN=C(N)N)[C@H](O)[C@H](O)C(=O)N[C@@H](CC(C)C)[C@@H]1Cc2cccc(O)c2C(=O)O1 [PXCNA, prexenocoumacin]		kills selectively E. coli expressing the ClbP protease	low level of fluorescence observed for both	growth did not appear inhibited

From patent publication US20250276031A1, “PRODRUGS AS SELECTIVE ANTIBIOTICS AGAINST COLIBACTIN-PRODUCING E. COLI” (New York University in Abu Dhabi Corporation, priority 2024, published 2025)
